This passage reports IC50 results from patent publication US20240050428A1 (Cullgen (Shanghai), Inc., priority 2020, published 2024).

One test relates to MV4;11 cells. Nature of the test: Cell viability assay (CellTiter-Glo) in MV4;11 cells, alone or with gilteritinib. The format is cell-based. Particulars: MV4;11 cells, three days, CellTiter-Glo, read-out: MV4.
The subject of the next test is MOLM-13 cells. Nature of the test: Cell viability assay (CellTiter-Glo) in MOLM-13 cells, alone or with gilteritinib. The format is cell-based. The following applies: MOLM-13 cells, three days, CellTiter-Glo. (In general: In ATP-based viability assays light output follows the ATP content of the culture.)
Where [1] appears, read: Homo sapiens, MV4-11, 72 h, compound with gilteritinib 10 nM, 11 IC50 gilteritinib.
Setting [2] is: Homo sapiens, MOLM-13, 72 h, compound with gilteritinib 20 nM, read-out: MOLM-13 IC50 gilteritinib.
Where [3] appears, read: Homo sapiens, MV4-11, 72 h, compound alone (without gilteritinib), 11 IC50.
[4] abbreviates: Homo sapiens, MV4-11, 72 h, with gilteritinib 10 nM, 11 IC50 gilteritinib.
Setting [5] is: Homo sapiens, MOLM-13, 72 h, compound alone (without gilteritinib), read-out: MOLM-13 IC50.
Setting [6] is: Homo sapiens, MOLM-13, 72 h, with gilteritinib 20 nM, read-out: MOLM-13 IC50 gilteritinib.

SMILES strings stand for the structures. Like-named read-outs stand apart in the source and are kept apart here. Some results are limits rather than exact numbers.

For the molecule `CN1CCN(c2cccc(-c3cnn([C@H]4C[C@H](CCCNc5ccc6c(c5)C(=O)N(C5CCC(=O)NC5=O)C6=O)C4)c3)n2)CC1` (stereo partly drawn) [GS-413, 2-(2,6-dioxopiperidin-3-yl)-5-((3-(trans-3-(4-(6-(4-methylpiperazin-1-yl)pyridin-2-yl)-1H-pyrazol-1-yl)cyclobutyl)propyl)amino)isoindoline-1,3-dione], the IC50 is 100 to 1000 nM in the test on MV4;11 cells (setting [1]); 100 to 1000 nM in the test with MV4;11 cells (compound alone (without gilteritinib), 11 IC50); 10 to 100 nM with MOLM-13 cells (setting [2]); > 1000 nM in the test on MOLM-13 cells (compound alone (without gilteritinib), read-out: MOLM-13 IC50).
For the molecule `C[C@@H]1CN(c2ccc3ncc(-c4cnn([C@H]5C[C@H](CCCNc6ccc7c(c6)C(=O)N(C6CCC(=O)NC6=O)C7=O)C5)c4)nc3c2)C[C@H](C)N1C` (stereo partly drawn) [GS-408, 2-(2,6-dioxopiperidin-3-yl)-5-((3-(trans-3-(4-(7-((3S,5R)-3,4,5-trimethylpiperazin-1-yl)quinoxalin-2-yl)-1H-pyrazol-1-yl)cyclobutyl)propyl)amino)isoindoline-1,3-dione], the IC50 in the test on MV4;11 cells (setting [3]) lay within 100 to 1000 nM; in the test on MV4;11 cells (setting [4]), 10 to 100 nM; in the test with MOLM-13 cells (setting [5]) it was 100 to 1000 nM; with MOLM-13 cells (setting [6]), 10 to 100 nM.
As to `Cc1cncc(-c2cnn(CCCCCCNc3ccc4c(c3)C(=O)N(C3CCC(=O)NC3=O)C4=O)c2)c1` (stereo not shown) [GS-499, 2-(2,6-dioxopiperidin-3-yl)-5-((6-(4-(5-methylpyridin-3-yl)-1H-pyrazol-1-yl)hexyl)amino)isoindoline-1,3-dione], the IC50 with MV4;11 cells (setting [3]) was > 1000 nM; in the test with MV4;11 cells (setting [1]), 100 to 1000 nM; in the test on MOLM-13 cells (setting [5]), > 1000 nM; in the test on MOLM-13 cells (setting [2]), 100 to 1000 nM.
For the molecule `CN1CCN(c2ccc(-c3cn([C@H]4C[C@H](CNc5ccc6c(c5)C(=O)N(C5CCC(=O)NC5=O)C6=O)C4)nc3C3CC3)nc2)CC1` (stereo partly drawn) [GS-298, 5-(((trans-3-(3-Cyclopropyl-4-(5-(4-methylpiperazin-1-yl)pyridin-2-yl)-1H-pyrazol-1-yl)cyclobutyl)methyl)amino)-2-(2,6-dioxopiperidin-3-yl)isoindoline-1,3-dione], the IC50 with MV4;11 cells (setting [3]), with MV4;11 cells (setting [4]), in the test with MOLM-13 cells (setting [5]) and in the test on MOLM-13 cells (setting [6]) was > 1000 nM in each case.
`O=C1CCC(N2C(=O)c3ccc(NC[C@H]4C[C@H](n5cc(-c6nccc7cccnc67)c(C6CC6)n5)C4)cc3C2=O)C(=O)N1` (stereo partly drawn) [GS-286, 5-(((trans-3-(3-Cyclopropyl-4-(1,7-naphthyridin-8-yl)-1H-pyrazol-1-yl)cyclobutyl)methyl)amino)-2-(2,6-dioxopiperidin-3-yl)isoindoline-1,3-dione]: the IC50 in the test with MV4;11 cells (setting [3]), in the test with MV4;11 cells (setting [4]), in the test with MOLM-13 cells (setting [5]) and in the test on MOLM-13 cells (setting [6]) was < 10 nM each time.
Take `CN1CCN(c2cccc3nc(-c4cnn([C@H]5C[C@H](CCCNc6ccc7c(c6)C(=O)N(C6CCC(=O)NC6=O)C7=O)C5)c4)cnc23)CC1` (stereo partly drawn) [GS-404, 2-(2,6-Dioxopiperidin-3-yl)-5-((3-(trans-3-(4-(5-(4-methylpiperazin-1-yl)quinoxalin-2-yl)-1H-pyrazol-1-yl)cyclobutyl)propyl)amino)isoindoline-1,3-dione]: the IC50 with MV4;11 cells (setting [3]) is 10 to 100 nM; in the test with MV4;11 cells (setting [4]), < 10 nM; in the test with MOLM-13 cells (setting [5]) it was 100 to 1000 nM; with MOLM-13 cells (setting [6]), < 10 nM.
Take `CN1CCN(c2cn([C@H]3C[C@H](CNc4ccc5c(c4)C(=O)N(C4CCC(=O)NC4=O)C5=O)C3)nc2C2CC2)CC1` (stereo partly drawn) [GS-459, 5-(((trans-3-(3-cyclopropyl-4-(4-methylpiperazin-1-yl)-1H-pyrazol-1-yl)cyclobutyl)methyl)amino)-2-(2,6-dioxopiperidin-3-yl)isoindoline-1,3-dione]: the IC50 in the test with MV4;11 cells (setting [3]), with MV4;11 cells (setting [1]), with MOLM-13 cells (setting [5]) and in the test on MOLM-13 cells (setting [2]) was > 1000 nM throughout.
For `O=C1CCC(N2C(=O)c3ccc(NCCCN4CC(n5cc(-c6cnc7ccccc7n6)cn5)C4)cc3C2=O)C(=O)N1` (stereo not shown) [GS-371, 2-(2,6-Dioxopiperidin-3-yl)-5-((3-(3-(4-(quinoxalin-2-yl)-1H-pyrazol-1-yl)azetidin-1-yl)propyl)amino)isoindoline-1,3-dione], the IC50 in the test on MV4;11 cells (setting [3]) is > 1000 nM; with MV4;11 cells (setting [4]), > 1000 nM; with MOLM-13 cells (setting [5]) it was 100 to 1000 nM; in the test with MOLM-13 cells (setting [6]), 100 to 1000 nM.
On to `O=C1CCC(N2C(=O)c3ccc(NC[C@H]4C[C@H](n5cc(-c6cnc7c(C8CNC8)cccc7n6)c(C6CC6)n5)C4)cc3C2=O)C(=O)N1` (stereo partly drawn) [GS-624, 5-(((trans-3-(4-(5-(Azetidin-3-yl)quinoxalin-2-yl)-3-cyclopropyl-1H-pyrazol-1-yl)cyclobutyl)methyl)amino)-2-(2,6-dioxopiperidin-3-yl)isoindoline-1,3-dione], for which the IC50 in the test with MV4;11 cells (setting [3]) was 100 to 1000 nM; in the test on MV4;11 cells (setting [1]), 10 to 100 nM; in the test with MOLM-13 cells (setting [5]), > 1000 nM; in the test on MOLM-13 cells (setting [2]), 10 to 100 nM.
Take `O=C1CCC(N2C(=O)c3ccc(NCCC[C@H]4C[C@H](n5cc(-c6cnc7cc(C8CCOCC8)ccc7n6)cn5)C4)cc3C2=O)C(=O)N1` (stereo partly drawn) [GS-420, 2-(2,6-dioxopiperidin-3-yl)-5-((3-(trans-3-(4-(6-(tetrahydro-2H-pyran-4-yl)quinoxalin-2-yl)-1H-pyrazol-1-yl)cyclobutyl)propyl)amino)isoindoline-1,3-dione]: the IC50 fell in the range of 100 to 1000 nM in the test with MV4;11 cells (setting [3]), 10 to 100 nM with MV4;11 cells (setting [1]), 100 to 1000 nM in the test on MOLM-13 cells (setting [5]) and 10 to 100 nM in the test on MOLM-13 cells (setting [2]).
With `O=C1CCC(N2C(=O)c3ccc(NCCCCCCc4ncc(-c5cnc6ccccc6n5)s4)cc3C2=O)C(=O)N1` (stereo not shown) [GS-386, 2-(2,6-Dioxopiperidin-3-yl)-5-((6-(5-(quinoxalin-2-yl)thiazol-2-yl)hexyl)amino)isoindoline-1,3-dione], the IC50 was 100 to 1000 nM with MV4;11 cells (setting [3]), 10 to 100 nM with MV4;11 cells (setting [4]), 10 to 100 nM in the test with MOLM-13 cells (setting [5]) and < 10 nM with MOLM-13 cells (setting [6]).
In the case of `O=C1CCC(N2C(=O)c3ccc(NCCCC(F)(F)C(=O)N4CCC(n5cc(-c6cnc7ccccc7n6)cn5)CC4)cc3C2=O)C(=O)N1` (stereo not shown) [GS-145, 5-((4,4-Difluoro-5-oxo-5-(4-(4-(quinoxalin-2-yl)-1H-pyrazol-1-yl)piperidin-1-yl)pentyl)amino)-2-(2,6-dioxopiperidin-3-yl)isoindoline-1,3-dione], the IC50 in the test with MV4;11 cells (setting [3]) is 100 to 1000 nM; in the test on MV4;11 cells (setting [4]), 10 to 100 nM; with MOLM-13 cells (setting [5]) it was 100 to 1000 nM; with MOLM-13 cells (setting [6]), < 10 nM.
`CN1CCN(c2ccc3ncc(-c4cn(CCCCCCNc5ccc6c(c5)C(=O)N(C5CCC(=O)NC5=O)C6=O)nc4C4CC4)nc3c2)CC1` (stereo not shown) [GS-570, 5-((6-(3-Cyclopropyl-4-(7-(4-methylpiperazin-1-yl)quinoxalin-2-yl)-1H-pyrazol-1-yl)hexyl)amino)-2-(2,6-dioxopiperidin-3-yl)isoindoline-1,3-dione]: the IC50 is 10 to 100 nM in the test on MV4;11 cells (setting [3]), < 10 nM in the test with MV4;11 cells (setting [1]), 100 to 1000 nM in the test on MOLM-13 cells (setting [5]) and < 10 nM in the test on MOLM-13 cells (setting [2]).
As for `O=C1CCC(N2Cc3cc(NCCCCCC4(N5CCC(n6cc(-c7cnc8ccccc8n7)cn6)CC5)CC4)ccc3C2=O)C(=O)N1` (stereo not shown) [GS-126, 3-(1-Oxo-5-((5-(1-(4-(4-(quinoxalin-2-yl)-1H-pyrazol-1-yl)piperidin-1-yl)cyclopropyl)pentyl)amino)isoindolin-2-yl)piperidine-2,6-dione], the IC50 with MV4;11 cells (setting [3]) is 100 to 1000 nM; in the test on MV4;11 cells (setting [4]), > 1000 nM; in the test on MOLM-13 cells (setting [5]), > 1000 nM; in the test with MOLM-13 cells (setting [6]), > 1000 nM.
On to `O=C1CCC(N2C(=O)c3ccc(NCCCCCCn4ncc(-c5cnc6ccccc6n5)c4C4CC4)cc3C2=O)C(=O)N1` (stereo not shown) [GS-553, 5-((6-(5-cyclopropyl-4-(quinoxalin-2-yl)-1H-pyrazol-1-yl)hexyl)amino)-2-(2,6-dioxopiperidin-3-yl)isoindoline-1,3-dione], for which the IC50 with MV4;11 cells (setting [3]) was > 1000 nM; in the test on MV4;11 cells (setting [1]), 10 to 100 nM; in the test with MOLM-13 cells (setting [5]), > 1000 nM; in the test with MOLM-13 cells (setting [2]) it was 10 to 100 nM.
As for `O=C1CCC(N2C(=O)c3ccc(NCCCCCCn4cc(-c5cnc6cc(Br)ccc6n5)cn4)cc3C2=O)C(=O)N1` (stereo not shown) [GS-517, 5-((6-(4-(6-Bromoquinoxalin-2-yl)-1H-pyrazol-1-yl)hexyl)amino)-2-(2,6-dioxopiperidin-3-yl)isoindoline-1,3-dione], the IC50 with MV4;11 cells (setting [3]) was in the range of 100 to 1000 nM; in the test with MV4;11 cells (setting [1]) it was 10 to 100 nM; in the test on MOLM-13 cells (setting [5]), 100 to 1000 nM; in the test with MOLM-13 cells (setting [2]), 10 to 100 nM.
Take `O=C1CCC(N2C(=O)c3ccc(NCCCCCCn4cc(-c5cnc6ccccc6n5)c(C5CC5)n4)cc3C2=O)C(=O)N1` (stereo not shown) [GS-552, 5-((6-(3-Cyclopropyl-4-(quinoxalin-2-yl)-1H-pyrazol-1-yl)hexyl)amino)-2-(2,6-dioxopiperidin-3-yl)isoindoline-1,3-dione]: the IC50 was 100 to 1000 nM in the test with MV4;11 cells (setting [3]), 10 to 100 nM with MV4;11 cells (setting [1]), 100 to 1000 nM in the test on MOLM-13 cells (setting [5]) and < 10 nM in the test with MOLM-13 cells (setting [2]).
Consider `O=C1CCC(N2C(=O)c3ccc(NCCCC4CC(n5cc(-c6cnc7cccc(F)c7n6)cn5)C4)cc3C2=O)C(=O)N1` (stereo not shown) [GS-164, 2-(2,6-Dioxopiperidin-3-yl)-5-((3-(3-(4-(8-fluoroquinoxalin-2-yl)-1H-pyrazol-1-yl)cyclobutyl)propyl)amino)isoindoline-1,3-dione], for which the IC50 in the test with MV4;11 cells (setting [3]) fell in the range of 100 to 1000 nM; in the test with MV4;11 cells (setting [4]), 10 to 100 nM; in the test with MOLM-13 cells (setting [5]), 100 to 1000 nM; in the test with MOLM-13 cells (setting [6]), 10 to 100 nM.
Turning to `O=C1CCC(N2C(=O)c3ccc(NCCCCn4cc(-c5cnc6ccccc6n5)cn4)cc3C2=O)C(=O)N1` (stereo not shown) [GS-360, 2-(2,6-Dioxopiperidin-3-yl)-5-((4-(4-(quinoxalin-2-yl)-1H-pyrazol-1-yl)butyl)amino)isoindoline-1,3-dione], the IC50 in the test with MV4;11 cells (setting [3]) was 100 to 1000 nM; in the test on MV4;11 cells (setting [4]), 100 to 1000 nM; in the test on MOLM-13 cells (setting [5]), > 1000 nM; in the test with MOLM-13 cells (setting [6]), 10 to 100 nM.
